Where “and” joins values, the source holds several entries; their conditions need not be identical. Equal entries are not always repeated.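 Briefly, cells in 96-well plates were exposed to five compound concentrations for 48 h, and endpoints were estimated by linear interpolation. GI50 is the concentration that inhibits growth by half. TGI denotes the concentration required for complete inhibition of growth.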
How the values were obtained:
Assay in all cases: DTP human tumour cell line panel, 48 h
COLO 205 colon = system: COLO 205 colon
MDA-MB-435 = system: MDA-MB-435
A549 NSCLC = system: A549 NSCLC
HT29 colon = system: HT29 colon
SN12C renal = system: SN12C renal
786-0 renal = system: 786-0 renal
MCF7 breast = system: MCF7 breast
NCI-H23 lung = system: NCI-H23 lung
BT-549 breast = system: BT-549 breast
MDA-MB-231 breast = system: MDA-MB-231 breast
TK-10 renal = system: TK-10 renal
CCRF-CEM leukemia = system: CCRF-CEM leukemia

SMILES | TGI (COLO 205 colon) | TGI (MDA-MB-435) [µM] | TGI (A549 NSCLC) [µM] | TGI (HT29 colon) [µM] | TGI (SN12C renal) [µM] | TGI (786-0 renal) [µM] | TGI (MCF7 breast) [µM] | TGI (NCI-H23 lung) [µM] | TGI (BT-549 breast) [µM] | TGI (MDA-MB-231 breast) [µM] | TGI (TK-10 renal) [µM] | TGI (CCRF-CEM leukemia) [µM] | GI50 (MDA-MB-435) [µM] | GI50 (A549 NSCLC) [µM] | GI50 (MCF7 breast) [µM] | GI50 (MDA-MB-231 breast) [µM] | GI50 (CCRF-CEM leukemia) [µM]
CC(=O)O[C@H]1[C@@H](OC2CCCC2(c2ccccc2)c2ccccc2)O[N+]([O-])=C[C@@]12COCc1cc3c(cc12)OCO3 (stereo partly specified) | > 58.2 µM | 14.3 | > 45.4 | 9.11 | > 39.6 | 22 | > 45.2 | 52.1 | > 86.2 | > 43.2 | > 24.7 | > 24.5 | – | – | – | – | –
O=c1[nH]cc(N(CCCl)CCCl)c(=O)[nH]1 | 157 µM | 136 | 314 | 306 | 162 | 64.8 | 205 | 97.6 | 158 | 211 | 325 | 113 | – | – | – | – | –
O=C1C=CC[C@H](/C=C/C[C@@H](O)C[C@H](O)/C=C/c2ccccc2)O1 | 20.4 µM | 23.4 | 33.5 | 23.5 | 26.9 | 29.6 | 24.8 | 23.5 | 23.6 | 22.2 | 24 | 19.1 | – | – | – | – | –
COc1cc(/C=C/c2sc3ccccc3[n+]2C)ccc1N(C)C | 2.76 µM and 2.86 µM | 22.5 | > 100 | 32.4 | 25.5 | 24.8 | 19.5 | 27.7 | 3.7 | 23.2 | 32 | 13.9 | 10.2 | 7.08 | 6.78 | 11.2 | 3.76
CNC(=O)c1n[nH]n(Cc2ccccc2)c1=S | > 100 µM | > 100 | > 100 | > 100 | > 100 | > 100 | > 100 | > 100 | > 100 | > 100 | > 100 | > 100 | – | – | – | – | –
N#CC(C#N)=Cc1ccc(C=C2SC3=C(SCCS3)S2)s1 | > 100 µM | 7.37 | > 100 | > 100 | > 100 | > 100 | > 100 | 95.3 | 15.2 | > 100 | 68.6 | > 100 | – | – | – | – | –
COCC(=O)OC1CCn2c1nc1c2C(=O)C(C)=C(NC(C)=O)C1=N (stereo unspecified) | 37.3 µM | 3.59 | 42.5 | > 47.4 | 13.4 | 9.3 | 3.52 | 23.8 | 3.76 | 8.82 | 32 | 8.27 | – | – | – | – | –
Clc1ccc2c(c1)CC1C[N+]3=C(CCCC3)C1=C2 (stereo unspecified) | > 100 µM | > 100 | > 100 | > 100 | > 100 | > 100 | > 100 | > 100 | > 100 | > 100 | > 100 | > 100 | – | – | – | – | –
O=C(O)c1cncc(C(=O)O)c1 | > 100 µM | > 100 | > 100 | > 100 | > 100 | > 100 | > 100 | > 100 | > 100 | > 100 | > 100 | > 100 | – | – | – | – | –
O=c1c[n+](-c2ccccc2)[nH]o1 | > 100 µM | > 100 | > 100 | > 100 | > 100 | > 100 | > 100 | > 100 | > 100 | > 100 | > 100 | > 100 | – | – | – | – | –
CC(=O)N1CC[N+](C)(CCCCN2c3ccccc3Sc3cc(N=[N+]=[N-])ccc32)CC1 | > 100 µM | > 100 | > 100 | > 100 | > 100 | > 100 | > 100 | > 100 | > 100 | > 100 | > 100 | > 100 | – | – | – | – | –
O=C1N(CN2CCOCC2)CN(CN2CCOCC2)C(=O)N1Cc1ccccc1 | 36.1 µM | 38 | > 100 | 39.9 | 48.6 | 71.8 | 82.6 | 38.9 | 57 | 69.6 | > 100 | 75.8 | – | – | – | – | –
COc1ccc(C(=O)Cn2c(C(C)=O)nc3ccccc32)cc1 | 52.4 µM | > 100 | > 100 | > 100 | > 100 | 33.7 | > 100 | > 100 | > 100 | > 100 | > 100 | > 100 | – | – | – | – | –
CC1(C)CCCCCC(C)(CCCCCCCCCCCO)C1=O (stereo unspecified) | 30.9 µM | 30.9 | 29 | 24.1 | 29.9 | 29.8 | 29.8 | 30.3 | 33.8 | 29.9 | 24.5 | 29.7 | – | – | – | – | –
COc1ccc(-c2oc3cc(OC)c(OC)c(OC)c3c(=O)c2OC)cc1OC | > 100 µM | > 100 | > 100 | > 100 | > 100 | > 100 | > 100 | > 100 | > 100 | > 100 | > 100 | > 100 | – | – | – | – | –
COc1ccc(/C=C(\C(=O)OCC(C)C)c2ccc(OC)c(OC)c2)cc1OC | > 100 µM | > 100 | > 100 | > 100 | > 100 | > 100 | > 100 | > 100 | > 100 | 61.5 | > 100 | > 100 | – | – | – | – | –
O=c1oc2cc(O)ccc2cc1-c1nc2ccccc2s1 | 11 µM | 90.1 | 55.1 | 85.6 | 49 | 52.7 | 67 | 61.2 | 51 | 53.6 | > 100 | 26.8 | – | – | – | – | –
O=NNc1cnccn1 | > 1250 µM | > 1250 | > 1250 | > 1250 | > 1250 | > 1250 | 1240 | > 1250 | > 1250 | > 1250 | > 1250 | > 1250 | – | – | – | – | –
CCOC(=O)NC(NNc1ccc([N+](=O)[O-])cc1[N+](=O)[O-])(C(F)(F)F)C(F)(F)F | 29.9 µM | > 100 | > 100 | > 100 | > 100 | > 100 | > 100 | > 100 | > 100 | > 100 | 96 | 72.3 | – | – | – | – | –
CC(=O)OCC1OC(n2c3c(cc(C#N)c2=S)CCCCCC3)C(OC(C)=O)C(OC(C)=O)C1OC(C)=O (stereo unspecified) | > 100 µM | > 100 | > 100 | > 100 | > 100 | > 100 | > 100 | > 100 | > 100 | > 100 | > 100 | > 100 | – | – | – | – | –
Cc1nn(-c2ccccc2)c2c1C(c1cc3ccccc3nc1Cl)NC(=S)N2 (stereo unspecified) | > 100 µM | > 100 | > 100 | > 100 | > 100 | > 100 | > 100 | > 100 | > 100 | > 100 | > 100 | > 100 | – | – | – | – | –
COc1ccc2c[n+](C)c3c4cc(OC)c(OC)cc4ccc3c2c1 | 5.49 µM | 28.4 | 10.3 | 23.1 | 12.6 | 15.5 | > 100 | 13.6 | 10.8 | 18.3 | 51.5 | 31.2 | – | – | – | – | –
Cc1cc(C)nc(NS(=O)(=O)c2ccc(NNC(=O)c3cccc4c(NNc5ccc(S(=O)(=O)Nc6nc(C)cc(C)n6)cc5)c5ccccc5nc34)cc2)n1 | 46.3 µM | 39.4 | 96.8 | 37.8 | > 100 | 54.1 | 62.4 | 51.6 | 71.4 | 44.9 | 67.7 | 51.2 | – | – | – | – | –
O=Cc1[nH]c(=O)[nH]c(=O)c1CCl | > 100 µM | > 100 | > 100 | > 100 | > 100 | > 100 | > 100 | > 100 | > 100 | > 100 | > 100 | > 85.8 | – | – | – | – | –
COC1=CC(=O)c2c(O)ccc(O)c2C1=O | 3.07 µM | 1.34 | 4.09 | 4.41 | 7.55 | 28 | 8.02 | 9.32 | 6.17 | 10.1 | 28.3 | 43.6 | – | – | – | – | –
Cc1cc(N(CCC#N)CCC#N)ccc1/C(N=Nc1ccccc1)=N\NC(=O)c1ccccc1 | 53.6 µM | > 100 | > 100 | 35.5 | > 100 | 76.6 | > 100 | > 100 | 77.4 | > 100 | 41 | 61.7 | – | – | – | – | –
COc1cc(C=Nc2ccc(S(N)(=O)=O)cc2)cc(OC)c1 | > 50 µM | 49.3 | > 50 | > 50 | > 50 | > 50 | > 50 | > 50 | > 50 | > 50 | > 50 | > 50 | – | – | – | – | –
c1ccc2c(c1)CCN1CCc3c([nH]c4ccccc34)C21 (stereo unspecified) | 37.8 µM | 75.5 | > 100 | 99.3 | > 100 | > 100 | > 100 | > 100 | > 100 | > 100 | > 100 | 95.5 | – | – | – | – | –

Reference: PubChem BioAssay (NCI)
